Data set [1] relates to heterotopic PC3flu tumors. As to the kind of experiment: Heterotopic PC3flu versus PC3pip tumor study. The data set is classed as in vivo, mouse. The conditions noted are these: 955 nmol/kg every 4 days, five doses, n = 5, p = 0.0493. The protocol:
Male athymic nude mice were implanted subcutaneously with 1 × 10^6 of PC3pip cells 100 μL of matrigel. When tumor size reached approximately 100 mm^3 (tumor volume = Length × width^2/2), mice received drugs through tail vein injection every 4 days with a total of five doses. Mice were treated every 4 days with a total of five doses. Animals were weighed and tumor size measured every other day for 90 days. Cures were defined as no tumor present at end of the 90-day study. When tumors became too large or animals were moribund they were euthanized. Five mice were used in each group. […]
drugs through tail vein inject every 4 days with total of 5 injections as indicated by the red arrows.
Each group had 5 mice. Values are mean ± SD of 5 animals. The plots stopped when animals died during the experiments since values are represent as mean ± SD of 5 animals.
(nmol/kg) Tumor Growth (nmol/kg) Therapeutic Index *
*: Therapeutic index is defined by MTD/effective dose.
PC3flu tumors. Treatment were scheduled every 4 days with a total of five doses as indicated by the red arrow. Each group had 5 mice. For tumor growth curves and body weight curves, values are mean ± SD of 5 animals. The plots stopped when animals died during the experiments since values are represent as mean ± SD of 5 animals. (A) Tumor growth curves of mice treated with 955 nmol/kg of PSMA-1-VcMMAE. […]

Data set [2] can be described thus: In vitro cytotoxicity assay (CCK-8), PC3pip. The conditions noted are these: human; for EC50 at 72 h: PC3pip cells. The data set is classed as cell-based, human. How it is done:
Cells (1000/well) were seeded in 96-well culture plates the day before treatment.

Data set [3] concerns heterotopic PC3pip tumors. Nature of the data set: Heterotopic PC3pip tumor survival study. The data set is classed as in vivo. How it is done:
Male athymic nude mice were implanted subcutaneously with 1 × 10^6 of PC3pip cells 100 μL of matrigel. When tumor size reached approximately 100 mm^3 (tumor volume = Length × width^2/2), mice received drugs through tail vein injection every 4 days with a total of five doses. Mice were treated every 4 days with a total of five doses. Animals were weighed and tumor size measured every other day for 90 days. Cures were defined as no tumor present at end of the 90-day study. When tumors became too large or animals were moribund they were euthanized. Five mice were used in each group.

Data set [4] deals with metastatic PC3pip tumor (intracardiac GFP-PC3pip cells). As to the kind of experiment: Metastatic PC3pip survival study. Format: in vivo, mouse. The conditions noted are these: 1910 nmol/kg every 4 days, five doses, 90 days, n = 8. How it is done: Male athymic nude mice were injected into the left ventricle of the heart with 1 × 10^5 GFP labeled PC3pip cells to generate bone metastasis. One week later, mice received 1910 nmol/kg of PSMA-1-VcMMAE or PBS every 4 days with a total of five doses and the progression of disease was monitored by GFP imaging. Eight mice were used in each group.

For data set [5], the target named is T1, human liver cathepsin B (Homo sapiens, UniProt P07858).
T1 construct: purchased Anthens Research and Technology, Anthens, AL, USA (so in the source); host or cells: human liver (tissue-derived enzyme)
Nature of the data set: Enzymatic cleavage by cathepsin B, HPLC analysis. Format: in vitro ADME. The conditions noted are these: activated human liver cathepsin B, 2 μM conjugate, 37 °C, triplicate. How it is done:
Cathepsin is a prevalent protease that PSMA internalized ligands will encounter as they enter into late endosomes/lysosomes. To investigate if PSMA-targeted drug conjugates were cleavable by cathepsin B, the two conjugates were incubated with or without cathepsin protease and chromatographed by high performance liquid chromatography (HPLC).
At different time intervals, 40 μL of the solution was taken out into tubes loaded with 1 μL of 1 mM E64 protease inhibitor. […] Studies were performed in triplicate.

In data set [6] the test system is orthotopic PC3pip tumors. Nature of the data set: Orthotopic PC3pip survival study. The conditions noted are these: 3860 nmol/kg (so in the source) i.v. every 4 days, five doses, n = 5. The data set is classed as in vivo, mouse. How it is done:
Surgical orthotopic tumor implantation was performed as previously reported. Tumor growth/size was monitored using Siemens Acuson S2000 (Siemens AG. Munich, Germany) ultrasound scanner. When the tumors were at the appropriate size (5 mm diameter as measured by ultrasound, approximately 2 weeks) animals were given PSMA-1-VcMMAE, or PBS every 4 days with a total of five doses. Tumors were monitored every other day by ultrasound. Each group utilized five mice.

Data set [7] concerns the target T2, PSMA (Homo sapiens, UniProt Q04609).
T2 construct: expressed in transfected cells; host or cells: PC3pip cells (PC3 retrovirally transfected with PSMA), from Dr. Michel Sadelain, MSKCC
Nature of the data set: Competitive binding assay against 3H-ZJ24 on PC3pip cells. The protocol: The assay was carried as previously reported by incubation PC3pip cells with different concentrations of drug conjugates in the presence of 10 nM N-[N-[(S)-1,3-dicarboxypropyl]carbamoyl]-S-[^3H]-methyl-L-cysteine (^3H-ZJ24) (GE Healthcare Life Sciences, Chicago, IL, USA). Radioactivity of cell pellet was counted by scintillation counter. The concentration required to inhibit 50% of binding was determined (IC50) by GraphPad Prism 3.0.

Where [8] appears, read: 3820 nmol/kg i.v. every 4 days, five doses, n = 5.

Structures are written as SMILES. “Also recorded” adds a separate entry of the source. Where two headings read alike, the source gives them in different places. *1 amine or outer side, *2 acyl side, *3 side chain or, on linkers, in order; H or OH if unused. Where a SMILES comes first, the peptide text is derived from it. Bridges are numbered along the chain shown (N, C = ends). Roman numbers before positions name the chains, in order. [ ]: non-standard residue; d: D form. The star is where a group is joined. Hexanoyl(6-succinimido-3yl) = O=C1CC([*:1])C(=O)N1CCCCCC(=O)[*:2]; Dolaproine = CO[C@@H]([C@@H]1CCCN1)[C@@H](C)C(=O)O; Dil = CC[C@H](C)[C@H](NC)[C@@H](CC(=O)O)OC; γGlu = O=C(O)[C@H](CCC(=O)[*:2])N[*:1]; PABC = O=C(OCc1ccc(N[*:1])cc1)[*:2]; X2 = C[C@@H](N*)[C@@H](O)c1ccccc1; X1 = O=C(C1CCC(CN[*:1])CC1)[*:2]; Cit = NC(=O)NCCC[C@H](N)C(=O)O; NMeV = CN[C@H](C(=O)O)C(C)C; CO = O=C([*:1])[*:2]; Ahx = NCCCCCC(=O)O

T2 sequence (Q04609 whole entry): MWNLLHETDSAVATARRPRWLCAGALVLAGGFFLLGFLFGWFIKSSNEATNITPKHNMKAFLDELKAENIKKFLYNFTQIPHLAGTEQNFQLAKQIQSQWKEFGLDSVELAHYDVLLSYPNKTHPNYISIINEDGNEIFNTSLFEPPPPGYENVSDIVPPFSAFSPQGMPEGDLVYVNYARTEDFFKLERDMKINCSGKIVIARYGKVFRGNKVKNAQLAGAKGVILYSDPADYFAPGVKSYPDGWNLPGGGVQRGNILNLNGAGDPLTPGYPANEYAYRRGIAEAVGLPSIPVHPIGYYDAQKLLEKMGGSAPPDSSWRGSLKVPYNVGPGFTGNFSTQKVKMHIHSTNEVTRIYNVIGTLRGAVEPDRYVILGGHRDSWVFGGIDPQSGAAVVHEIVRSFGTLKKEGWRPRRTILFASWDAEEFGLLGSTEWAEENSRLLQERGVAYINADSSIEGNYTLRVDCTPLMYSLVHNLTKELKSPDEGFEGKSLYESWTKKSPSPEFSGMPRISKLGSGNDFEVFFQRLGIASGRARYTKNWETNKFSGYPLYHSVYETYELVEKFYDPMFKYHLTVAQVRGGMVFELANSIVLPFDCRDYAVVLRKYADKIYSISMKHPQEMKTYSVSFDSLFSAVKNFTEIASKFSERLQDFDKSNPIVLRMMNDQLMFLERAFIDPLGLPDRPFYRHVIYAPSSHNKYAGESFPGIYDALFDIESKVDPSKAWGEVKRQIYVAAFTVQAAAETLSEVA

Turning to `CC[C@H](C)[C@@H]([C@@H](CC(=O)N1CCC[C@H]1[C@H](OC)[C@@H](C)C(=O)N[C@H](C)[C@@H](O)c1ccccc1)OC)N(C)C(=O)[C@@H](NC(=O)[C@H](C(C)C)N(C)C(=O)OCc1ccc(NC(=O)[C@H](CCCNC(N)=O)NC(=O)[C@@H](NC(=O)CCCCCN2C(=O)CC(SC[C@H](NC(=O)[C@@H](CCC(=O)O)NC(=O)[C@@H](CCC(=O)O)NC(=O)[C@@H](CCC(=O)O)NC(=O)CCCCCNC(=O)C3CCC(CNC(=O)CC[C@H](NC(=O)N[C@@H](CCC(=O)O)C(=O)O)C(=O)O)CC3)C(=O)NCCCCCC(=O)N[C@@H](CCCCN)C(N)=O)C2=O)C(C)C)cc1)C(C)C` (stereo partly shown) [PSMA-1-VcMMAE] (I: {Glu-CO-γGlu}-[X1][Ahx][dE][dE][dE]C[Ahx]K-NH2 / II: V[Cit][PABC][NMeV]V[Dil][Dolaproine]-X2; linker I:6-II:N via Hexanoyl(6-succinimido-3yl)), the “inhibition of PC3pip versus PC3flu tumor growth (in words)” value in data set [1] is on record as “significantly more effective at inhibiting PSMA-positive PC3pip tumor growth than PSMA-negative PC3flu tumor growth”. In addition, the selectivity ratio at 72 h in data set [2] (PC3pip and PC3flu cells, more potent for PC3pip than PC3flu, read-out: selectivity, differential cytotoxicity ratio between PC3pip and PC3flu cells) was 48. Moreover, the EC50 at 72 h in data set [2] (72 h, CCK-8, in the presence of 10 μM of PSMA-1, read-out: EC50, cytotoxicity to PC3pip cells + PSMA-1) turned out to be 241 ± 8.6 nM. Also, the EC50 at 72 h in data set [2] (72 h, CCK-8, in the presence of protease inhibitor E64 (50 μM given for the Cy5.5 conjugates), read-out: EC50, cytotoxicity to PC3pip cells + E64) was 31.1 ± 2.11 nM. For the same compound, in data set [2] (72 h incubation, CCK-8, mean ± SD, read-out: EC50, cytotoxicity to PC3pip cells), the EC50 at 72 h stood at 4.64 ± 0.83 nM. In data set [3] (191 nmol/kg i.v. every 4 days, five doses, n = 5), the “tumor growth (in words), 191 nmol/kg” value is recorded as “significant tumor inhibition”. Further, the “cures, 955 nmol/kg” value in data set [3] (955 nmol/kg i.v. every 4 days, five doses, n = 5) is reported as 2/5. Besides, the “histology (H&E) of major organs (in words)” value in data set [3] (3820 nmol/kg every 4 days, five injections, day 21) is “no noticeable histological changes; also recorded: no histological damage in salivary gland”. For the same compound, in data set [3] (setting [8]), the “cure rate, 3820 nmol/kg” value came to 60%; the “cures (tumor-free mice at 90 days), 3820 nmol/kg” value was “three out of five”; the “survival over 90-day experimental time, 3820 nmol/kg” value is on record as “all five mice survived”. Moreover, in data set [3] (MTD/effective dose), the therapeutic index came to 20. The “lowest dose to effectively inhibit tumor growth” value in data set [3] (i.v. every 4 days, five doses, tumor growth inhibited for 30 days, n = 5) came to 382 nmol/kg. Further, the “body weight (in words)” value in data set [3] (up to 3820 nmol/kg i.v. every 4 days, five doses) is given as “No body weight loss”. Besides, in data set [4], the “cures, metastatic PC3pip” value is “six out of eight”. For the same compound, the “cure rate, metastatic PC3pip” value in data set [4] (started 1 week after cardiac injection) came out at 75%. Besides, the “cleavage by cathepsin B (in words)” value in data set [5] is on record as “release of free MMAE”. For the same compound, the “tumor free mice, orthotopic PC3pip, 3860 nmol/kg” value in data set [6] is recorded as “one”. This compound also showed an IC50 in data set [7] of 4.34 nM.

By EC50 is commonly meant the midpoint of the concentration-response curve. Usually IC50 stands for the point on the concentration scale where inhibition reaches its midpoint. Low readings indicate higher potency, high ones lower potency.

For the origin of these results see article PMC7865627, “Small Molecule-Based Prodrug Targeting Prostate Specific Membrane Antigen for the Treatment of Prostate Cancer” (Cancers, 2021).
